Reference: patent US11247970B2, “Selective inhibition of gluconeogenic activity” (Dana-Farber Cancer Institute, Inc., priority 2017, dated 2022)
Blank lines part the entries; values can stand above or below the compound they belong to.

Legend:
primary hepatocytes = test: Glucose production by primary hepatocytes (glucagon or Ad-PGC-1α); type: cell-based, mouse; conditions: for glucose release to culture medium compared to control: hepatocytes ectopically expressing PGC-1α, overnight treatment, pyruvate/lactate
Description: (§1) For measurement of acetylation, gene expression and glucose production SR-18292 ([…]) was added to cells overnight and fresh compound was added the following day for additional 3 h before collecting the cells (for total of ˜18 h treatment). Where insulin and glucagon stimulation were performed, the medium was changed to starvation medium (DMEM, 0.2% BSA, 2 mM sodium pyruvate, and 1% penicillin/streptomycin) with fresh compound for the last 3 h and cells were stimulated with either 100 nM insulin or 200 nM glucagon for an extra 1.5 h. For glucose measurements following PGC-1α over expression cells were incubated for the last 3 h in glucose-free medium (phenol-red/glucose free DMEM, 0.2% BSA, 2 mM sodium pyruvate and 20 mM sodium lactate or 10 mM glycerol in case glycerol was used as substrate). For glucose measurements following glucagon stimulation cells were incubated for the last 4 h in the same glucose-free medium that also contained glucagon (200 nM). The glucose level in the medium was measured using a glucose assay kit from Eton Bioscience Inc. by adding […] of assay buffer to […] of medium followed by 15 min incubation at 37° C. Absorbance was measured at 490 nm.
PGC-1α activates hepatic gluconeogenic gene expression, and an increase in its acetylation status reduces expression of both Pck1 and G6pc genes (Rodgers et al., 2005; Yoon et al., 2001). […] Thus, a high-throughput screen with these 252 compounds at different doses was performed. Briefly, Hepatocytes were treated with forskolin for 1.5 hours to induce the expression of both Pck1 and G6pc genes, which mimics the fasting and PGC-1α-mediated gluconeogenic response. The dose response curves were used to calculate an inhibitory activity of the compounds by determining the difference in Ct values between compound treatment and forskolin control at each dose, and provided an estimated potency of the compounds in suppressing Pck1 and G6pc (FIGS. 4, 34). […] To specifically test the inhibitory activity of the remaining small molecule positive hits on PGC-1α-mediated glucose production, adenoviruses to ectopically express PGC-1α in primary hepatocytes were used. Similar to forskolin, PGC-1α overexpression induces gluconeogenic gene expression and promotes glucose release. Primary hepatocytes were treated with the chosen positive hit compounds that could suppress gluconeogenic gene expression, and the concentration of glucose released to the culture medium was measured.

[1] = Preliminary pharmacokinetics, liver concentration; type: in vivo; conditions: ip, 2 h after single dose 30 mg/kg I.P., read-out: compound concentration in the liver
PGC-1α [2] = molecular target: T1, PGC-1α (Mus musculus, UniProt O70343); test: AlphaLisa PGC-1α acetylation screen in U-2 OS cells over expressing PGC-1α and GCN5; type: cell-based; parameters: expressed in transfected cells; host or cells: U-2 OS cells infected with Ad-PGC-1α and Ad-GCN5
T1 sequence (O70343 1-797): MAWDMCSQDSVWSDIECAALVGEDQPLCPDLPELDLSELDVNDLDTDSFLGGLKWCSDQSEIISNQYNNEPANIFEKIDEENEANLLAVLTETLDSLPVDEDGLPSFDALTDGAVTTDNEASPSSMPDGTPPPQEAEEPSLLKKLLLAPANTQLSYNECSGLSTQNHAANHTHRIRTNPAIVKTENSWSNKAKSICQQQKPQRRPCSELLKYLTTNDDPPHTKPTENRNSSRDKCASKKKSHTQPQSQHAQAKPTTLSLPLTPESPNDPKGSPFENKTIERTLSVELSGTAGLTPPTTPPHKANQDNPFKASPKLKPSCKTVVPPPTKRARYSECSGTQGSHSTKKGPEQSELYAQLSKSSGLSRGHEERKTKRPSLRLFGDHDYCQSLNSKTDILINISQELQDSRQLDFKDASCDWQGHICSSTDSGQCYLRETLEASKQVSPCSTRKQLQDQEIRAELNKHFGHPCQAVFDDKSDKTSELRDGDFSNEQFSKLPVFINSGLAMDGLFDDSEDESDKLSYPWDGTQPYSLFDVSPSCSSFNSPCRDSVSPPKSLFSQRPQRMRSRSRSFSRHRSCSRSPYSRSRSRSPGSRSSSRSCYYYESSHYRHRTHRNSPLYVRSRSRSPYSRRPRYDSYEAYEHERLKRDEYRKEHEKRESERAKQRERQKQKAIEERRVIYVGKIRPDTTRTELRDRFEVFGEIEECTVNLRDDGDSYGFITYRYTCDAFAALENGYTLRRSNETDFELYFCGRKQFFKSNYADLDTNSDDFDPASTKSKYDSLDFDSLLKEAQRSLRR
Description: U-2 OS cells were thawed and grown in 4 Triple flasks (NUNC) with growth medium. After 48 hours, cells were harvested and seeded in 4 Hyper flasks at a density of 15-20 million cell each. Cells were then grown for 4-5 days until reached confluency. After reaching the desired confluency, medium was changed to assay medium and cells were infected with Ad-PGC-1α and Ad-GCN5 for 4 hours. Following infection, medium was changed to phenol-free medium and cells were incubated overnight. The following day, cells were harvested and seeded on a 384-well plate at 7000 cells/well in […] assay media. Cells were allowed to adhere for 4-8 hours after which 100 nl of compound was added. After overnight incubation with compound, media was aspirated and cells were incubated with lysis buffer for 1 hour at RT. […] Perkin Elmer EnVision plate reader was used for signal detection using Alpha protocol. For each compound, activity score was calculated based on the mean of the normalized and corrected sample activity replicates. […] For each sample the highest valid tested concentration was determined and set as Maximum concentration. […] AC values were calculated using the curve fitting strategies in Genedata Screener Condoseo (7.0.3) and up to the active concentration limit (Maximum concentration) described for each sample. […]

[3] = Bioavailability (data not shown)
[4] = Solubility (data not shown); type: physicochemical
[5] = test system: Pck1 and G6pc gene expression; test: Gluconeogenic gene and protein expression in primary hepatocytes (qPCR, western); type: cell-based, mouse; parameters: effect on glucagon or PGC-1α-increased Pck1 and G6pc expression, relative to SR-18292: dose or concentration left out as unconfirmed; conditions: 18 h, glucagon or Ad-PGC-1α
Description: as §1
siRNA oligos against mouse Ppargc1a were purchased from OriGene (SR420231). Hepatocytes were transfected with a 1:1:1:mixture of 3 unique 27mer siRNA duplexes ([…]) using Lipofectamin RNAiMax (Invitrogen) immediately upon seeding with plating medium. The following morning cells were washed with PBS and medium was changed to maintenance medium. In the afternoon, cells were transfected again and compound treatment started.
Total RNA was extracted from cells or pulverized liver using TRIzol reagent (Ambion, Life Technologies), followed by cDNA preparation from 2 μg of total RNA with a High-Capacity cDNA Reverse Transcription Kit (Applied Biosystems). cDNA products were quantified by real-time PCR using Power SYBR Green PCR Master Mix (Applied Biosystems) on a CFX384 Real-Time PCR System (Bio-Rad). To calculate IC50 from C-80 dose response, curves were fit to the hill equation in a similar manner used to calculate estimated AC50 from the high-throughput qPCR screen. However, unlike the curves from the qPCR high-throughput screen, values of relative repression were used rather than of delta-Ct.

PGC-1α [6] = molecular target: T1, PGC-1α; test: Western blot of PGC-1α acetylation in U-2 OS cells (analog comparison); type: cell-based; parameters: expressed in transfected cells; host or cells: U-2 OS cells infected with Ad-PGC-1α and Ad-GCN5; dose or concentration left out as unconfirmed; conditions: Ad-PGC-1α and Ad-GCN5, 18 h
Description: U-2 OS cells were infected with Ad-PGC-1α and Ad-GCN5 and treated with the indicated compound for 18 h. PGC-1α was immunoprecipitated using FLAG beads.
For PGC-1α acetylation detection in hepatocytes cells were infected with Ad-PGC-1α and Ad-GCN5. Cells were collected in RIPA buffer (containing protease inhibitor cocktail, 5 mM NaF, 5 mM β-glycerophosphate, 10 mM nicotinamide, 1 mM DTT and 1 μM trichostatin A). FLAG-HA-PGC-1α was immunoprecipitated overnight at 4° C. with FLAG beads (Sigma A2220). For GCN5 interaction with PGC-1α, U-2 OS cells were infected with Ad-PGC-1α. Nuclear extracts were obtained by lysing cell in Buffer A (10 mM HEPES-KOH (pH 7.9), 10 mM KCl, 1.5 mM MgCl2, 0.5 mM DTT, 0.25% IGEPAL (v/v), 5 mM NaF, 5 mM β-glycerophosphate, 5 mM sodium butyrate and 10 mM nicotinamide), supplemented with Protease Inhibitor Cocktail. Once cytoplasmic fractions were separated, nuclear pellets were lysed in Buffer B (20 mM HEPES-KOH (pH 7.9), 125 mM NaCl, 1 mM EDTA, 1 mM DTT, 1% IGEPAL (v/v), 10% glycerol (v/v), 5 mM NaF, 5 mM β-glycerophosphate, 5 mM sodium butyrate and 10 mM nicotinamide), supplemented with Protease Inhibitor Cocktail. FLAG-HA-PGC-1α was immunoprecipitated with FLAG beads overnight at 4° C. All beads were washed at last 3 times in lysis buffer before eluting in sample loading buffer.

concentration at 2 h [1]: 2300 nM
potency in a confirmatory screen (PGC-1α [2]): highest potency
Compound: Cc1ccc(CN(CC(O)COc2cccc3[nH]cc(C)c23)C(C)(C)C)cc1 (stereo not drawn) [Compound C-80]
glucose release to culture medium compared to control (primary hepatocytes): next most potent small molecule

bioavailability [3]: poor
solubility [4]: poor
Compound: Cc1nc(N2CCN(S(=O)(=O)c3ccc(F)cc3)CC2)c2c(-c3cccs3)csc2n1 [Compound C-82]
glucose release to culture medium compared to control (primary hepatocytes): top small molecule hit suppressing glucose production

Compound: Cc1ccc(CN(CC(O)COc2ccccc2)C(C)(C)C)cc1 (stereo not drawn) [SR-19138]
effect on glucagon or PGC-1α-increased Pck1 and G6pc expression, relative to SR-18292 [5]: reduced the inhibitory effect
ability to induce acetylation of PGC-1α compared to SR-18292 (PGC-1α [6]): reduced ability to induce acetylation of PGC-1α

Compound: CN(C)C(=N)N=C(N)N [metformin, reference compound]
concentration able to suppress glucose production (primary hepatocytes; hepatocytes): 100 to 250 µM
